The structures appear in SMILES notation.

A short description of series [1]: Selective index, ratio of IC50 for human NHDF cells to EC50 for Trypanosoma brucei brucei. It is filed as toxicity. Particulars: read-out: Ratio IC50/EC50.
Another series relates to HeLa S3. Description: Cytotoxicity against human HeLa S3 cells assessed as reduction in cell viability by XTT assay. The class given is functional, cell-based. (Formazan colour is commonly taken as a measure of viable cells.)
Series [2] deals with Trypanosoma brucei brucei. The experiment in a line: Antitrypanosomal activity against Trypanosoma brucei brucei by drug sensitivity assay. It is filed as functional, organism-based.
The test system of the next series is HepG2. The experiment in a line: Cytotoxicity against human HepG2 cells assessed as reduction in cell viability by XTT assay. The class given is functional, cell-based.
The subject of another series is CCRF-CEM. The experiment in a line: Cytotoxicity against human CCRF-CEM cells assessed as reduction in cell viability by XTT assay. It is filed as functional, cell-based.
In the next series the test system is HL-60. The experiment in a line: Cytotoxicity against human HL-60 cells assessed as reduction in cell viability by XTT assay. It is filed as functional, cell-based.
The test system of a further series is NHDF. The experiment in a line: Cytotoxicity against human NHDF cells assessed as reduction in cell viability by XTT assay. It is filed as cell-based.
For series [3], the system named is Trypanosoma brucei gambiense. The experiment in a line: Antitrypanosomal activity against Trypanosoma brucei gambiense by drug sensitivity assay. The class given is functional, organism-based.
The nature of series [4]: Selective index, ratio of IC50 for human NHDF cells to EC50 for Trypanosoma brucei gambiense. Conditions: read-out: Ratio IC50/EC50. It is filed as toxicity.

For the compound `Nc1ncnc2c1ccn2[C@@H]1O[C@H](CO)[C@@H](F)[C@H]1O`, the selectivity ratio in [1] is more than 1.7. Further, the IC50 in the series with HeLa S3, in the series with HepG2, in the series on CCRF-CEM, with HL-60 and in the series on NHDF was more than 10 µM in each case. Moreover, the half-maximal effective concentration (EC50) (commonly the concentration that produces a half-maximal response) in series [2] stood at 6 µM.
As for `Nc1ncnc2c1c(I)cn2[C@@H]1O[C@H](CO)[C@@H](F)[C@H]1O`, the selectivity ratio in [1] was more than 666; in [4], more than 455. Also, the IC50 (as a rule, the concentration needed to halve the response being measured) in the series with HeLa S3 is 6.3 µM; in the series on HepG2, 1.1 µM; with CCRF-CEM, 4.5 µM; in the series with HL-60, 1.13 µM; in the series with NHDF, more than 10 µM. The figures for the EC50 in [2] and in series [3] were 0.015 µM and 0.022 µM, respectively.
In the case of `Nc1ncnc2c1c(-c1cccs1)cn2[C@@H]1O[C@H](CO)[C@@H](F)[C@H]1O`, the selectivity ratio in series [1] is more than 2. Further, the half-maximal inhibitory concentration (IC50) in the series on HeLa S3, with HepG2, with CCRF-CEM, in the series on HL-60 and with NHDF was more than 10 µM in each case. The compound also had an EC50 in series [2] of 4.92 µM.
For the compound `Nc1ncnc2c1c(-c1ccco1)cn2[C@@H]1O[C@H](CO)[C@@H](F)[C@H]1O`, the selectivity ratio in series [1] is more than 6. The IC50 in the series on HeLa S3, in the series with HepG2, in the series on CCRF-CEM, in the series with HL-60 and with NHDF was more than 10 µM each time. Besides, the EC50 in series [2] is 1.59 µM.
Consider `Nc1ncnc2c1c(-c1ccc(Cl)cc1)cn2[C@@H]1O[C@H](CO)[C@@H](F)[C@H]1O`, for which the selectivity ratio in series [1] is more than 20; in series [4], more than 10. Besides, the IC50 in the series with HeLa S3, in the series on HepG2, in the series with CCRF-CEM, with HL-60 and in the series on NHDF was more than 10 µM throughout. Further, the EC50 in [2] was 0.49 µM; in [3], 0.99 µM.
With `Nc1ncnc2c1c(Br)cn2[C@@H]1O[C@H](CO)[C@@H](F)[C@H]1O`, the selectivity ratio in [1] is more than 208; in [4] it was more than 270. Besides, the IC50 in the series with HeLa S3, with HepG2, in the series with CCRF-CEM, in the series on HL-60 and in the series with NHDF was more than 10 µM each time. The figures for the concentration for a half-maximal effect (EC50) in series [2] and in series [3] were 0.048 µM and 0.037 µM, respectively.
Take `Nc1ncnc2c1c(-c1ccc3ccccc3c1)cn2[C@@H]1O[C@H](CO)[C@@H](F)[C@H]1O`: the 50% inhibitory concentration (IC50) in the series on HeLa S3, with HepG2, in the series with CCRF-CEM, in the series with HL-60 and in the series with NHDF was more than 10 µM throughout. Further, the EC50 in series [2] amounted to 16.2 µM.
Consider `Nc1ncnc2c1c(-c1cccc3c1oc1ccccc13)cn2[C@@H]1O[C@H](CO)[C@@H](F)[C@H]1O`, for which the half-maximal inhibitory concentration (IC50) in the series with HeLa S3, in the series with HepG2, in the series with CCRF-CEM, in the series on HL-60 and in the series with NHDF was more than 10 µM in each case. Further, the EC50 in series [2] was 15.4 µM.

The record behind these values is ChEMBL document CHEMBL4813995, “Synthesis and anti-trypanosomal activity of 3'-fluororibonucleosides derived from 7-deazapurine nucleosides” (Bioorg Med Chem Lett, 2021).
